Data from patent US11813244B2, “Agent for eliminating senescent cells” (NIIGATA UNIVERSITY, priority 2016, dated 2023).
Entries after “also recorded” stand apart in the source; their conditions may differ.

How the values were obtained:
[1] = system: human umbilical cord vein derived vascular endothelial cells (HUVECs); assay: Cell viability of young and aged HUVECs (ApoTox-Glo Triplex Assay); type: cell-based; conditions: 48 hours, 2DG 1 mM, 3HB 20 mM, AIC 200 μM; for selectivity of the effects for aged versus young cells: aged (15 passages or more) vs young (less than 10 passages) HUVECs, viability and apoptosis; for cell viability: young and aged HUVECs, relative to Con
Method: (§1) Specifically, human umbilical cord vein derived vascular endothelial cells (HUVECs, Lonza) were cultured in a prescribed culture medium (EBM-2/EGM-2, Lonza). Less than 10 passages were defined as young and 15 passages or more were defined as aged. For young or aged HUVEC, 2DG, 3HB, and AIC were added to the culture solutions at the concentrations of 1 mM, 20 mM, and 200 μM, respectively, and the cells were harvested after 48 hours. The collected cells were evaluated for viability by fluorescence/absorbance measurements using ApoTox-Glo™ Triplex Assay kit (Promega). Dead cells were stained using AnnexinV (Becton & Dickinson (BD)), PI (Sigma-Aldrich), and Hoechst 33258 (Invitrogen), and the percentage of apoptosis-induced cells was quantified by FACS analysis.

[2] = system: human umbilical cord vein derived vascular endothelial cells (HUVECs); assay: Apoptosis induction in young and aged HUVECs (AnnexinV/PI/Hoechst 33258, FACS analysis); type: cell-based; conditions: 48 hours, relative to Con, 2DG 1 mM, 3HB 20 mM, AIC 200 μM
Method: as §1

[3] = system: senescent cells in the visceral adipose tissues; assay: Senescence-associated acidic β-galactosidase staining of visceral adipose tissue of diet-induced obesity model mice; type: in vivo, mice (C57BL/6NCr); conditions: canagliflozin 0.03% w/w in diet, one week
Method: (§2) Four-week-old wild-type mice (C57BL/6NCr) were fed with high fat diets for 8 weeks to prepare diet-induced obesity model mice. Then, canagliflozin, an SGLT2 inhibitor, was administered orally to the prepared obesity model mice by mixing with the diet at the concentration of 0.03% w/w (hereinafter referred to as “high fat diet+SGLT2i group”).
For comparison, four-week-old wild-type mice (C57BL/6NCr) fed with normal diets for 8 weeks (hereinafter referred as “normal diet group”) and obesity model mice prepared in the same manner as described above with the exception of not administering canagliflozin (hereinafter referred to as “high fat diet group”) were prepared.
The visceral adipose tissues (epididymal adipose tissues) were collected from the mice of each group one week after starting administration of canagliflozin in Experimental Example 1.
(§3) Then, the senescent cells in the visceral adipose tissues collected from the mice of each group were detected according to the conventional method (Dimri, G. P. et al., Proc. Natl. Acad. Sci. U.S.A., 92(20), 9363-9367, 1995). Specifically, each of the visceral adipose tissues was stained with senescence-associated acidic β-galactosidase and the senescent cells were detected. The senescent cells were stained blue by this staining.

p53 protein = assay: Western blotting of p53 protein in visceral adipose tissue of obesity model mice; type: in vivo, mice (C57BL/6NCr); conditions: canagliflozin 0.03% w/w in diet, one week
Method: as §2
Specifically, expression level of p53 protein was measured by Western blotting using a portion of the visceral adipose tissues collected in Experimental Example 2. Type 1C12 (CST) was used as the anti-p53 antibody. Anti-β-actin antibody (type 13E5, CST) was used as the antibody to detect β-actin protein, which is the loading control.

[4] = system: p21 (Cdkn1a) and p16 (Cdkn2a) mRNA; assay: Quantitative RT-PCR of senescence markers p21 (Cdkn1a) and p16 (Cdkn2a) in visceral adipose tissue of obesity model mice; type: in vivo, mice (C57BL/6NCr); conditions: canagliflozin 0.03% w/w in diet, 3 days and 1 week, relative to Actb
Method: as §2
(§4) Specifically, RNA was extracted with RNA-Bee™ (Tel-Test) from a portion of the visceral adipose tissue (epididymal adipose tissue) collected from the mice of each group 3 days and 1 week after starting administration of canagliflozin. The collected RNA was quantified by Nanodrop (Thermo), and cDNA was then prepared from 1 μg of the RNA using QuantiTect Reverse Transcription Kit (Quiagen). This cDNA was used to quantify the relative expression of mRNAs of p21 and p16 using Actb as the housekeeping gene by quantitative RT-PCR method using Light Cycler 480 (Roche), and TaqMan Universal Probe Library and the Light Cycler Master (Roche). The primers for each RNA were designed using the Probe finder on the Roche website.

visceral adipose tissue = assay: Adipose inflammation and oxidative stress in adipose tissue of obesity model mice (HE, DHE, F4/80 staining, CCL2 and TNFα RT-PCR); type: in vivo, mice (C57BL/6NCr); conditions: visceral fat
Method: as §2
Specifically, a portion of the visceral fat collected in Experimental Example 4 was immersed and fixed with 10% Mildform (Wako) for at least 24 hours. The sample was dehydrated and embedded in paraffin, and sliced into 5-μm thick. The slices were stuck on slides and subjected to hematoxylin-eosin (HE) staining, dihydroethidium (DHE) staining, or immunofluorescent staining with F4/80 antibody. The stained slices were imaged using Biorevo (Keyence Co.), or where necessary, using confocal microscopy. For the HE staining, the images were photographed at 400× magnification, and the mean number of the crown like structures per one 40× field of view was counted as well. For the DHE staining, the percentage (%) of a red color value equal to or greater than a certain value relative to a randomly photographed 400× image per one field of view was measured using ImageJ. For the Immunofluorescent staining with F4/80 antibody, percentage (%) of F4/80 positive cells per nucleus in one field of view was measured. In addition, mRNAs of CCL2 and TNFα were quantified by quantitative RT-PCR method according to the method described in Experimental Example 4.

[5] = system: p16 and p21 mRNA in heart, kidney, skeletal muscle (quadriceps), and brown adipose tissue; assay: Quantitative RT-PCR of p16 and p21 in organs other than visceral adipose tissue of obesity model mice; type: in vivo, mice (C57BL/6NCr); conditions: SGLT2 inhibitor administration for 7 days
Method: as §2, §4
Specifically, mRNA expression levels of p16 and p21 in heart, kidney, skeletal muscle (quadriceps), and brown adipose tissue, which were collected from the same mice when the visceral adipose tissue was collected in Experimental Example 2, were quantified using the same methods described in Experimental Example 4.

[6] = system: senescent cells in blood vessels; assay: Senescence-associated β-galactosidase staining of blood vessels of atherosclerotic model mice; type: in vivo, ApoE-deficient (ApoE−/−) mice; conditions: ApoE−/− mice on high fat diet 12 weeks, canagliflozin 0.03% w/w in diet, 2 weeks, vs HFD group
From the text: as §3
Four-week-old ApoE-deficient (ApoE^−/−) mice were fed with high fat diets for 12 weeks, followed by oral administration of canagliflozin, an SGLT2 inhibitor, mixed in the diet at the concentration of 0.03% w/w (hereinafter referred to as “HFD+SGLT2i group”). For comparison, the same mice as described above with the exception of not administering canagliflozin (hereinafter referred to as “HFD group”) were prepared. The blood vessels (from the aorta base to the descending aorta on the diaphragm) were collected from the mice of each group 2 weeks after starting administration of canagliflozin. Subsequently, the senescent cells in blood vessels collected from the mice of each group were detected according to the method described in Experimental Example 2. The stainability was measured at a part ranging from the ascending aorta to the branch of the arch left subclavian artery.

[7] = system: Hutchinson-Gilford progeria model mice (Zmpste24-deficient mice); assay: General condition of Hutchinson-Gilford progeria model mice; type: in vivo; conditions: canagliflozin 0.03% w/w in diet, 3 to 4 weeks, KO+SGLT2i vs KO
From the text: Canagliflozin, an SGLT2 inhibitor, mixed in a diet at the concentration of 0.03% w/w was orally administered to 13-week-old Hutchinson-Gilford progeria model mice (Zmpste24-deficient mice), and the general condition of the mice was observed.

[8] = Metabolome analysis of blood and various tissues of mice after short-term administration of the SGLT2 inhibitor; type: in vivo
From the text: It is known that SGLT2 inhibition accelerates fatty acid oxidation and suppresses glycolysis, and that acceleration of glycolysis is observed in senescent cells. Then, whether 3-hydroxybutyrate (hereinafter referred to as “3HB”), AICAR (hereinafter referred to as “AIC”), and 2-deoxyglucose (hereinafter referred to as “2DG”) that has an inhibitory effect on glycolysis have effects to induce apoptosis of senescent cells were examined.

[9] = SGLT2 inhibitor administration for 3 days and 7 days
[10] = SGLT2 inhibitor administration for 7 days

SMILES: O=CC[C@@H](O)[C@H](O)[C@H](O)CO [2DG, 2-deoxyglucose]
- selectivity of the effects for aged versus young cells [1]: in an aged cell-selective manner
- cell viability [1]: decrease of the cell viability
- apoptosis induction (percentage of apoptotic cells) [2]: increase the apoptosis induction

SMILES: CC(O)CC(=O)O (stereo not shown) [3HB, 3-hydroxybutyrate]
- selectivity of the effects for aged versus young cells [1]: in an aged cell-selective manner
- cell viability [1]: decrease of the cell viability
- apoptosis induction (percentage of apoptotic cells) [2]: increase the apoptosis induction

SMILES: NC(=O)c1ncn([C@@H]2O[C@H](CO)[C@@H](O)[C@H]2O)c1N [AIC, 5-Aminoimidazole-4-carboxamide-1-β-D-ribofuranoside]
- selectivity of the effects for aged versus young cells [1]: not in an aged cell-selective manner; also recorded: more potent effects in the young cells
- cell viability [1]: decreased cell viability
- apoptosis induction (percentage of apoptotic cells) [2]: increased apoptosis induction

SMILES: Cc1ccc([C@@H]2O[C@H](CO)[C@@H](O)[C@H](O)[C@H]2O)cc1Cc1ccc(-c2ccc(F)cc2)s1 [canagliflozin, (1S)-1,5-Anhydro-1-C(-3{[5-(4-fluorophenyl)thiophen-2-yl]methyl}-4-methylphenyl)-D-glucitol]
- inflammation at the visceral fat ([3]; high fat diet+SGLT2i group mice): alleviation of inflammation at the visceral fat was also observed
- senescent cells in the visceral adipose tissue (senescence-associated acidic β-galactosidase staining) ([3]; obesity model mice, oral, vs high fat diet group): significantly decreased the senescent cells in the visceral adipose tissue
- expression level of p53 in the visceral adipose tissue (Western blotting) (p53 protein): significantly lowered
- p16 mRNA levels in visceral adipose tissue [4]: a similar trend was observed for p16
- p21 mRNA levels in visceral adipose tissue [4]: significantly suppressed the increase of p21 mRNA levels
- mRNA expression of CCL2 (visceral adipose tissue; [9]): tended to decrease
- mRNA expression of TNFα (visceral adipose tissue; [9]): tended to decrease
- macrophage infiltration into adipose tissue (immunofluorescent staining with F4/80) (visceral adipose tissue; [9]): macrophage infiltration into adipose tissue remained
- infiltration of macrophages and CLS structures (HE staining, number of CLS) (visceral adipose tissue; [10]): significantly decreased
- oxidative stress (DHE staining, DHE positive area) (visceral adipose tissue; [10]): significantly suppressed
- mRNA levels of p16 in the brown adipose tissue [5]: tended to decrease
- mRNA levels of p16 in the kidney [5]: tended to decrease
- mRNA levels of p21 in the heart [5]: tended to decrease
- mRNA levels of p21 in the kidney [5]: tended to decrease
- mRNA levels of p21 in the skeletal muscle [5]: tended to decrease
- senescent cells in blood vessels (senescence-related β-galactosidase stainability) [6]: decreased the senescent cells stained blue
- deterioration of hair consistency and alopecia [7]: reduced
- AICAR in blood [8]: significant increase of AICAR
- ketone body concentration in blood and each tissue [8]: increase of ketone body concentration in blood and each tissue
